Data taken from US20050197350A1, “Novel quinoline, tetrahydroquinazoline, and pyrimidine derivatives and methods of treatment related to the use thereof” (TAISHO PHARMACEUTICAL CO., LTD., priority 2003, published 2005).

tested on: MCH receptors; assay: MCH receptor activity class (method not given); details: MCH receptor activity class 1-3 (percent of control at 10^-7 M or IC50)

Row | SMILES | class
1 | CCCc1ccccc1NC(=O)NC[C@H]1CC[C@@H](Nc2nccc(N(C)C)n2)CC1 [compound 2428, N-[(cis-4-{[4-(dimethylamino)pyrimidin-2-yl]amino}cyclohexyl)methyl]-N′-(2-propylphenyl)urea] | 2 (Class 2: The value of percent of control at 10^−7 M was from 40% to 60% or the value of IC′50 was from 50 nM to 200 nM.)

same assay, conditions: MCH receptor; class by percent of control at 10^-7 M or IC50

Row | SMILES | class
2 | Cc1ccc(CCNC(=S)N[C@H]2CC[C@@H](Nc3nc4c(c(N(C)C)n3)CCCC4)CC2)cc1 [compound 2052] | 3 (Class 3 The value of percent of control at 10^−7 M was more than 60% or the value of IC50 was more than 200 nM.)

same assay, conditions: activity class 1-3: percent of control at 10^-7 M or IC50

Row | SMILES | class
3 | CN(C)c1ccnc(N[C@H]2CC[C@@H](NC(=O)OCC3c4ccccc4-c4ccccc43)CC2)n1 [compound 1637] | 3 (Class 3 The value of percent of control at 10^−7 M was more than 60% or the value of IC50 was more than 200 nM.)
4 | COC(=O)NC[C@H]1CC[C@@H](Nc2nccc(N(C)C)n2)CC1 [compound 1655] | 3 (Class 3 The value of percent of control at 10^−7 M was more than 60% or the value of IC50 was more than 200 nM.)

same assay, conditions: activity class per percent of control at 10^-7 M or IC50

Row | SMILES | class
5 | CN(C)c1nc(N[C@H]2CC[C@@H](NC(=O)c3ccccc3C(=O)c3cccc4ccccc34)CC2)nc2c1CCCC2 [compound 1025] | 3 (Class 3 The value of percent of control at 10^−7 M was more than 60% or the value of IC50 was more than 200 nM.)
6 | CN(C)c1nc(N[C@H]2CC[C@@H](NC(=O)CCC(=O)c3cccs3)CC2)nc2c1CCCC2 [compound 1021] | 3 (Class 3 The value of percent of control at 10^−7 M was more than 60% or the value of IC50 was more than 200 nM.)

same assay, conditions: class 1-3 by percent of control at 10^-7 M or IC50

Row | SMILES | class
7 | CN(C)c1nc(NC2CCC(NC(=O)OCc3ccccc3)CC2)nc2c1CCCC2 (stereo not drawn) [compound 491] | 3 (Class 3 The value of percent of control at 10^−7 M was more than 60% or the value of IC50 was more than 200 nM.)
8 | CN(C)c1nc(N[C@H]2CC[C@@H](NC(=O)c3ccc(F)c(Cl)c3F)CC2)nc2c1CCCC2 [compound 498] | 3 (Class 3 The value of percent of control at 10^−7 M was more than 60% or the value of IC50 was more than 200 nM.)

same assay, conditions: class by percent of control at 10^-7 M or IC50

Row | SMILES | class
9 | CN(C)c1nc(N[C@H]2CC[C@@H](NC(=O)Nc3ccccc3F)CC2)nc2c1CCCC2 [compound 1828] | 3 (Class 3 The value of percent of control at 10^−7 M was more than 60% or the value of IC50 was more than 200 nM.)
10 | CN(C)c1ccnc(N[C@H]2CC[C@@H](NC(=O)c3cc(Br)c(Br)o3)CC2)n1 [compound 845] | 1 (Class 1: The value of percent of control at 10^−7 M was less than 40% or the value of IC50 was less than 50 nM.)
11 | CN(C)c1nc(N[C@H]2CC[C@@H](CNC(=O)c3cccc(OC(F)(F)F)c3)CC2)nc2c1CCCC2 [compound 616] | 3 (Class 3 The value of percent of control at 10^−7 M was more than 60% or the value of IC50 was more than 200 nM.)
12 | CCc1cccc(C(C)C)c1NC(=O)N[C@H]1CC[C@@H](Nc2nccc(N(C)C)n2)CC1 [compound 2196] | 3 (Class 3 The value of percent of control at 10^−7 M was more than 60% or the value of IC50 was more than 200 nM.)
13 | C=CCOc1ccccc1CNC[C@H]1CC[C@@H](Nc2nc3c(c(N(C)C)n2)CCCC3)CC1 [compound 1419] | 3 (Class 3 The value of percent of control at 10^−7 M was more than 60% or the value of IC50 was more than 200 nM.)
14 | CN(C)c1cc(N[C@H]2CC[C@@H](CNCc3ccc(N(C)C)c4ccccc34)CC2)nc2ccccc12 [compound 1160] | 3 (Class 3 The value of percent of control at 10^−7 M was more than 60% or the value of IC50 was more than 200 nM.)
15 | CN(C)c1ccnc(N[C@H]2CC[C@@H](NC(=O)CC3CCCC3)CC2)n1 [compound 293] | 3 (Class 3 The value of percent of control at 10^−7 M was more than 60% or the value of IC50 was more than 200 nM.)
16 | COC(CN[C@H]1CC[C@@H](Nc2nc3c(c(N(C)C)n2)CCCC3)CC1)c1ccccc1 (stereo partly drawn) [compound 1483] | 3 (Class 3 The value of percent of control at 10^−7 M was more than 60% or the value of IC50 was more than 200 nM.)
17 | C=C(C)c1cccc(C(C)(C)NC(=O)N[C@H]2CC[C@@H](Nc3cc(N(C)C)c4ccccc4n3)CC2)c1 [compound 2128] | 3 (Class 3 The value of percent of control at 10^−7 M was more than 60% or the value of IC50 was more than 200 nM.)
18 | COc1ccc(Cl)cc1CNC[C@H]1CC[C@@H](Nc2cc(N(C)C)c3ccccc3n2)CC1 [compound 1474] | 3 (Class 3 The value of percent of control at 10^−7 M was more than 60% or the value of IC50 was more than 200 nM.)
19 | CC(C)c1cccc(C(C)C)c1NC(=O)N[C@H]1CC[C@@H](Nc2nc3c(c(N(C)C)n2)CCCC3)CC1 [compound 1797, N-(2,6-diisopropylphenyl)-N′-(cis-4-{[4-(dimethylamino)-5,6,7,8-tetrahydroquinazolin-2-yl]amino}cyclohexyl)urea] | 2 (Class 2: The value of percent of control at 10^−7 M was from 40% to 60% or the value of IC′50 was from 50 nM to 200 nM.)
20 | Cc1ccc([N+](=O)[O-])cc1NC(=O)N[C@H]1CC[C@@H](Nc2nccc(N(C)C)n2)CC1 [compound 2235] | 3 (Class 3 The value of percent of control at 10^−7 M was more than 60% or the value of IC50 was more than 200 nM.)
21 | COc1ccc(C(=O)N[C@H]2CC[C@@H](Nc3nccc(N(C)C)n3)CC2)cc1OCc1ccccc1 [compound 889, 3-(benzyloxy)-N-(cis-4-{[4-(dimethylamino)pyrimidin-2-yl]amino}cyclohexyl)-4-methoxybenzamide] | 1 (Class 1: The value of percent of control at 10^−7 M was less than 40% or the value of IC50 was less than 50 nM.)
22 | CN(C)c1cc(N[C@H]2CC[C@@H](CNC(=O)C(c3ccc(Cl)cc3)c3ccc(Cl)cc3)CC2)nc2ccccc12 [compound 800, 2,2-bis(4-chlorophenyl)-N-[(cis-4-{[4-(dimethylamino)quinolin-2-yl]amino}cyclohexyl)methyl]acetamide] | 3 (Class 3 The value of percent of control at 10^−7 M was more than 60% or the value of IC50 was more than 200 nM.)
23 | CN(C)c1ccnc(N[C@H]2CC[C@@H](NC(=O)c3cncc(Br)c3)CC2)n1 [compound 306] | 3 (Class 3 The value of percent of control at 10^−7 M was more than 60% or the value of IC50 was more than 200 nM.)

same assay, conditions: class by percent of control at 10^−7 M or IC50

Row | SMILES | class
24 | CCOc1cc(OCC)cc(C(=O)N[C@H]2CC[C@@H](Nc3nc(C)cc(N(C)C)n3)CC2)c1 [compound 2975, N-(cis-4-{[4-(dimethylamino)-6-methylpyrimidin-2-yl]amino}cyclohexyl)-3,5-diethoxybenzamide] | 1 (Class 1: The value of percent of control at 10^−7 M was less than 40% or the value of IC50 was less than 50 nM.)
25 | Cc1cnc(N[C@H]2CC[C@@H](NCc3cccc(OC(F)(F)F)c3)CC2)nc1N(C)C [compound 3004] | 3 (Class 3 The value of percent of control at 10^−7 M was more than 60% or the value of IC50 was more than 200 nM.)
26 | Cc1cc(N(C)C)nc(N[C@H]2CC[C@@H](NC(=O)C(C)(C)c3ccc(Cl)cc3)CC2)n1 [compound 2949, 2-(4-chlorophenyl)-N-(cis-4-{[4-(dimethylamino)-6-methylpyrimidin-2-yl]amino}cyclohexyl)-2-methylpropanamide] | 1 (Class 1: The value of percent of control at 10^−7 M was less than 40% or the value of IC50 was less than 50 nM.)
27 | Cc1cnc(N[C@H]2CC[C@@H](CNC(=O)c3cccc(C(F)(F)F)c3)CC2)nc1N(C)C [compound 2697, N-[(cis-4-{[4-(dimethylamino)-5-methylpyrimidin-2-yl]amino}cyclohexyl)methyl]-3-(trifluoromethyl)benzamide] | 1 (Class 1: The value of percent of control at 10^−7 M was less than 40% or the value of IC50 was less than 50 nM.)
